Assay results as given in the NIST ThermoML archive (doi:10.1021/je700260f).

Details: Liquid, Vibrating tube method

FC(C(F)(F)F)C(F)(F)F [1,1,1,2,3,3,3-heptafluoropropane]
Details | mass density [kg/m3]
333.14 K, 28231 kPa | 1431.3
333.14 K, 28261 kPa | 1431.4
333.14 K, 28291 kPa | 1431.5
333.14 K, 28321 kPa | 1431.5
333.14 K, 28346 kPa | 1431.8
333.14 K, 28383 kPa | 1431.9
333.14 K, 28426 kPa | 1432.1
333.14 K, 28453 kPa | 1432.3
333.14 K, 29468 kPa | 1436.5
333.14 K, 29504 kPa | 1436.7
333.14 K, 29539 kPa | 1436.8
333.14 K, 29570 kPa | 1437.1
333.14 K, 29596 kPa | 1437.2
333.14 K, 29621 kPa | 1437.1
333.14 K, 29660 kPa | 1437.3
333.14 K, 29724 kPa | 1437.5
333.14 K, 29789 kPa | 1437.8
333.14 K, 29825 kPa | 1437.9
333.14 K, 29848 kPa | 1438.1
333.14 K, 29883 kPa | 1438.3
333.14 K, 29910 kPa | 1438.4
333.14 K, 29946 kPa | 1438.5
333.14 K, 29982 kPa | 1438.6
333.14 K, 30013 kPa | 1438.8
333.14 K, 30054 kPa | 1439.1
333.14 K, 30122 kPa | 1439.3
333.14 K, 30215 kPa | 1439.6
333.14 K, 30241 kPa | 1439.8
333.14 K, 30272 kPa | 1440
333.14 K, 30958 kPa | 1442.6
333.14 K, 31004 kPa | 1442.8
333.14 K, 31030 kPa | 1443
333.14 K, 31064 kPa | 1443.2
333.14 K, 31094 kPa | 1443.2
333.14 K, 31125 kPa | 1443.4
333.14 K, 31155 kPa | 1443.4
333.14 K, 31190 kPa | 1443.7
333.14 K, 31220 kPa | 1443.6
333.14 K, 31247 kPa | 1443.9
333.14 K, 31285 kPa | 1444
333.14 K, 31317 kPa | 1444
333.14 K, 31349 kPa | 1444.1
333.14 K, 31380 kPa | 1444.4
333.14 K, 31423 kPa | 1444.5
333.14 K, 31458 kPa | 1444.7
333.14 K, 31490 kPa | 1444.8
333.14 K, 31523 kPa | 1445
333.14 K, 31566 kPa | 1445.1
333.14 K, 31598 kPa | 1445.3
333.14 K, 31630 kPa | 1445.3
333.14 K, 31662 kPa | 1445.5
333.14 K, 31694 kPa | 1445.6
333.14 K, 31730 kPa | 1445.8
333.14 K, 31758 kPa | 1445.8
333.14 K, 31790 kPa | 1446
333.14 K, 31827 kPa | 1446.1
333.14 K, 31857 kPa | 1446.3
333.14 K, 31894 kPa | 1446.5
333.14 K, 31930 kPa | 1446.5
333.14 K, 31957 kPa | 1446.6
333.14 K, 32003 kPa | 1446.7
333.14 K, 32036 kPa | 1446.9
333.14 K, 32069 kPa | 1447
333.14 K, 32103 kPa | 1447.2
333.14 K, 32135 kPa | 1447.4
333.14 K, 32168 kPa | 1447.4
333.14 K, 32197 kPa | 1447.6
333.14 K, 32240 kPa | 1447.7
333.14 K, 32275 kPa | 1447.7
333.14 K, 32318 kPa | 1448
333.14 K, 32349 kPa | 1448.2
333.14 K, 32394 kPa | 1448.3
333.14 K, 32422 kPa | 1448.5
333.14 K, 32458 kPa | 1448.6
333.14 K, 32486 kPa | 1448.7
333.14 K, 32524 kPa | 1448.8
333.14 K, 32553 kPa | 1448.9
333.14 K, 32585 kPa | 1449.1
333.14 K, 32614 kPa | 1449.2
333.14 K, 32648 kPa | 1449.3
333.14 K, 32678 kPa | 1449.5
333.14 K, 32707 kPa | 1449.5
333.14 K, 32736 kPa | 1449.7
333.14 K, 32768 kPa | 1449.9
333.14 K, 32811 kPa | 1449.9
333.14 K, 32840 kPa | 1450.1
333.14 K, 32883 kPa | 1450.3
333.14 K, 33794 kPa | 1453.9
333.14 K, 33829 kPa | 1453.8
333.14 K, 33872 kPa | 1453.9
333.14 K, 33907 kPa | 1454.1
333.14 K, 34179 kPa | 1455.3
333.14 K, 34220 kPa | 1455.1
333.14 K, 34250 kPa | 1455.4
333.14 K, 34294 kPa | 1455.5
333.14 K, 34336 kPa | 1455.9
333.14 K, 34376 kPa | 1455.8
333.14 K, 34409 kPa | 1456
333.15 K, 6283 kPa | 1289.9
333.15 K, 6309 kPa | 1290.2
333.15 K, 6346 kPa | 1290.5
333.15 K, 6386 kPa | 1291
333.15 K, 6413 kPa | 1291.3
333.15 K, 6442 kPa | 1291.6
333.15 K, 6789 kPa | 1295.3
333.15 K, 6821 kPa | 1295.6
333.15 K, 6856 kPa | 1296
333.15 K, 6887 kPa | 1296.2
333.15 K, 6965 kPa | 1297
333.15 K, 7009 kPa | 1297.4
333.15 K, 8110 kPa | 1308.2
333.15 K, 8143 kPa | 1308.5
333.15 K, 8176 kPa | 1308.8
333.15 K, 8204 kPa | 1309.2
333.15 K, 8236 kPa | 1309.5
333.15 K, 8273 kPa | 1309.8
333.15 K, 8298 kPa | 1310.1
333.15 K, 8328 kPa | 1310.3
333.15 K, 8357 kPa | 1310.6
333.15 K, 8395 kPa | 1311
333.15 K, 8425 kPa | 1311.2
333.15 K, 8467 kPa | 1311.5
333.15 K, 8497 kPa | 1311.8
333.15 K, 8538 kPa | 1312.3
333.15 K, 8560 kPa | 1312.4
333.15 K, 8592 kPa | 1312.8
333.15 K, 8622 kPa | 1313
333.15 K, 8665 kPa | 1313.3
333.15 K, 8701 kPa | 1313.7
333.15 K, 8732 kPa | 1313.9
333.15 K, 8768 kPa | 1314.3
333.15 K, 8804 kPa | 1314.6
333.15 K, 8846 kPa | 1314.9
333.15 K, 8884 kPa | 1315.2
333.15 K, 8912 kPa | 1315.8
333.15 K, 8940 kPa | 1316
333.15 K, 9044 kPa | 1316.8
333.15 K, 9087 kPa | 1317.2
333.15 K, 9121 kPa | 1317.5
333.15 K, 9164 kPa | 1317.9
333.15 K, 9196 kPa | 1318
333.15 K, 9219 kPa | 1318.3
333.15 K, 9251 kPa | 1318.6
333.15 K, 9270 kPa | 1318.8
333.15 K, 9294 kPa | 1319
333.15 K, 9321 kPa | 1319.3
333.15 K, 9349 kPa | 1319.5
333.15 K, 9370 kPa | 1319.7
333.15 K, 9402 kPa | 1319.9
333.15 K, 9422 kPa | 1320.1
333.15 K, 9455 kPa | 1320.4
333.15 K, 9483 kPa | 1320.7
333.15 K, 9512 kPa | 1320.9
333.15 K, 9533 kPa | 1321.1
333.15 K, 9552 kPa | 1321.1
333.15 K, 9578 kPa | 1321.4
333.15 K, 9599 kPa | 1321.5
333.15 K, 9631 kPa | 1321.9
333.15 K, 9652 kPa | 1322.1
333.15 K, 9684 kPa | 1322.3
333.15 K, 9713 kPa | 1322.7
333.15 K, 9737 kPa | 1322.8
333.15 K, 10680 kPa | 1330.6
333.15 K, 10703 kPa | 1330.9
333.15 K, 10737 kPa | 1331
333.15 K, 10763 kPa | 1331.3
333.15 K, 10786 kPa | 1331.6
333.15 K, 10813 kPa | 1331.6
333.15 K, 11004 kPa | 1333.2
333.15 K, 11030 kPa | 1333.5
333.15 K, 11055 kPa | 1333.5
333.15 K, 11083 kPa | 1333.8
333.15 K, 11507 kPa | 1337.2
333.15 K, 11567 kPa | 1337.7
333.15 K, 11594 kPa | 1337.8
333.15 K, 11620 kPa | 1338
333.15 K, 11651 kPa | 1338.3
333.15 K, 11678 kPa | 1338.4
333.15 K, 11705 kPa | 1338.6
333.15 K, 11734 kPa | 1338.8
333.15 K, 11757 kPa | 1339
333.15 K, 12501 kPa | 1344.5
333.15 K, 12533 kPa | 1344.8
333.15 K, 12561 kPa | 1345
333.15 K, 12589 kPa | 1345.2
333.15 K, 12616 kPa | 1345.4
333.15 K, 12648 kPa | 1345.7
333.15 K, 12675 kPa | 1345.9
333.15 K, 12698 kPa | 1346.1
333.15 K, 12730 kPa | 1346.2
333.15 K, 12754 kPa | 1346.4
333.15 K, 12789 kPa | 1346.6
333.15 K, 12823 kPa | 1347
333.15 K, 12846 kPa | 1347.1
333.15 K, 13551 kPa | 1352.2
333.15 K, 13574 kPa | 1352.3
333.15 K, 13601 kPa | 1352.5
333.15 K, 13746 kPa | 1353.4
333.15 K, 13772 kPa | 1353.6
333.15 K, 13801 kPa | 1353.7
333.15 K, 13830 kPa | 1354.1
333.15 K, 13863 kPa | 1354.3
333.15 K, 13893 kPa | 1354.5
333.15 K, 14170 kPa | 1356.5
333.15 K, 14195 kPa | 1356.8
